The results in this text go back to PubChem BioAssay (NCI).

Where “and” joins values, the source holds several entries; their conditions need not be identical. Equal values may be shown once.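 Cells were grown in 96-well plates and exposed to each compound for 48 hours at five concentrations; endpoints were interpolated linearly between bracketing concentrations, or set to the highest concentration if not reached. GI50 is the concentration that inhibits growth by half. At the TGI there is no net growth.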

Some test systems named below: DU-145 prostate; EKVX NSCLC; LOX IMVI melanoma; MDA-MB-435; MOLT-4 leukemia; NCI/ADR-RES ovarian; OVCAR-4 ovarian; SF-268 CNS; SK-MEL-5 melanoma; SNB-19 CNS.
Test in all cases: NCI anticancer screen, dose series, 48 h

Consider `COc1cc(-c2cc(-c3cccs3)c(C#N)c(N3CCOCC3)n2)cc(OC)c1OC`, for which the GI50 in the assay on DU-145 prostate was 13.7 µM; in the assay with EKVX NSCLC, 24.2 µM; with LOX IMVI melanoma, 12 µM; in the assay on MDA-MB-435, more than 47.9 µM; with MOLT-4 leukemia, 4.09 µM; with NCI/ADR-RES ovarian, 5.08 µM. For the same compound, the GI50 is more than 44.6 µM with OVCAR-4 ovarian, more than 67.6 µM in the assay with SF-268 CNS, 5.71 µM in the assay on SK-MEL-5 melanoma and more than 76.1 µM with SNB-19 CNS. Also, the TGI in the assay with DU-145 prostate, in the assay with EKVX NSCLC, in the assay on LOX IMVI melanoma, in the assay with MDA-MB-435, in the assay on MOLT-4 leukemia and in the assay on NCI/ADR-RES ovarian was more than 100 µM throughout. The TGI in the assay on OVCAR-4 ovarian, with SF-268 CNS, with SK-MEL-5 melanoma and with SNB-19 CNS was more than 100 µM each time.
For `CC1NC(C(=O)O)Cc2cc(O)c(O)cc21` (centres undefined), the TGI in the assay on DU-145 prostate, in the assay on EKVX NSCLC, in the assay on LOX IMVI melanoma, in the assay with MDA-MB-435, with MOLT-4 leukemia and with NCI/ADR-RES ovarian was more than 100 µM each time. Moreover, the TGI in the assay with OVCAR-4 ovarian, with SF-268 CNS, with SK-MEL-5 melanoma and in the assay with SNB-19 CNS was more than 100 µM each time.
Take `C[C@]12CCCN1CC1=NNC(=O)c3cc(F)cc4[nH]c2c1c34`: the GI50 is 32.6 µM in the assay with DU-145 prostate; 13.6 µM with EKVX NSCLC; 7.64 µM with LOX IMVI melanoma; 23.7 µM in the assay with MDA-MB-435; 22.3 µM with MOLT-4 leukemia; 20 µM in the assay with NCI/ADR-RES ovarian. Besides, the GI50 in the assay with OVCAR-4 ovarian is 24.9 µM; with SF-268 CNS it was 19 µM; in the assay with SK-MEL-5 melanoma it was 20.7 µM; in the assay on SNB-19 CNS, 25.1 µM. Besides, the TGI was more than 100 µM in the assay on DU-145 prostate; 49.7 µM in the assay with EKVX NSCLC; 60.3 µM in the assay on LOX IMVI melanoma; 80.6 µM in the assay with MDA-MB-435; more than 100 µM with MOLT-4 leukemia; 71.8 µM with NCI/ADR-RES ovarian. Besides, the TGI was more than 100 µM in the assay with OVCAR-4 ovarian, 61.4 µM with SF-268 CNS, 53.4 µM in the assay with SK-MEL-5 melanoma and more than 100 µM in the assay on SNB-19 CNS.
For `COc1ccc(N=N/C(=N\NC(=O)c2cc(Br)ccc2O)c2ccc(N(CCC#N)CCC#N)cc2OC)cc1`, the GI50 is 82 µg/mL in the assay with DU-145 prostate; more than 150 µg/mL with EKVX NSCLC; 53.2 µg/mL with LOX IMVI melanoma; more than 150 µg/mL in the assay with MDA-MB-435; 52 µg/mL with MOLT-4 leukemia; 42 µg/mL in the assay on NCI/ADR-RES ovarian. In addition, the GI50 is 28.5 µg/mL with OVCAR-4 ovarian, 30.1 µg/mL with SF-268 CNS, 56.1 µg/mL in the assay with SK-MEL-5 melanoma and more than 150 µg/mL in the assay on SNB-19 CNS. Also, the TGI in the assay with DU-145 prostate, with EKVX NSCLC, in the assay on LOX IMVI melanoma, in the assay with MDA-MB-435, in the assay on MOLT-4 leukemia and in the assay with NCI/ADR-RES ovarian was more than 150 µg/mL throughout. Further, the TGI is 76 µg/mL in the assay on OVCAR-4 ovarian, more than 150 µg/mL in the assay with SF-268 CNS, more than 150 µg/mL with SK-MEL-5 melanoma and more than 150 µg/mL in the assay with SNB-19 CNS.
As to `O=c1c2cccc(F)c2sc2c(NCCCNCCO)nc3ccccc3c12`, the GI50 was 1.22 µM in the assay on DU-145 prostate; 1.29 µM in the assay on EKVX NSCLC; 1.13 µM with LOX IMVI melanoma; 1.63 µM in the assay with MDA-MB-435; 0.698 µM in the assay with MOLT-4 leukemia; 1.52 µM with NCI/ADR-RES ovarian. Moreover, the GI50 in the assay with OVCAR-4 ovarian is 1.77 µM; in the assay with SF-268 CNS it was 1.55 µM; with SK-MEL-5 melanoma it was 1.71 µM; with SNB-19 CNS, 1.65 µM. In addition, the TGI in the assay on DU-145 prostate came to 2.48 µM; in the assay on EKVX NSCLC, 2.64 µM; with LOX IMVI melanoma, 2.38 µM; with MDA-MB-435, 3 µM; in the assay with MOLT-4 leukemia, 2.43 µM; with NCI/ADR-RES ovarian, 3.06 µM. Besides, the TGI with OVCAR-4 ovarian is 3.64 µM; in the assay on SF-268 CNS, 3.12 µM; in the assay with SK-MEL-5 melanoma it was 3.09 µM; in the assay on SNB-19 CNS, 3.17 µM.
`CC(=O)NC(CS)C(=O)O` (centres undefined): the GI50 with DU-145 prostate, with EKVX NSCLC, with MDA-MB-435, with MOLT-4 leukemia, in the assay on NCI/ADR-RES ovarian and in the assay with OVCAR-4 ovarian was more than 100 µM throughout. For the same compound, the GI50 with SF-268 CNS, in the assay with SK-MEL-5 melanoma and in the assay with SNB-19 CNS was more than 100 µM in each case. Further, the TGI is more than 100 µM in the assay with DU-145 prostate; > 100 µM and 87600 µM in the assay with EKVX NSCLC; more than 100 µM with LOX IMVI melanoma; > 100 µM and 61900 µM in the assay with MDA-MB-435; more than 100 µM in the assay on MOLT-4 leukemia; > 100 µM and 81500 µM in the assay on NCI/ADR-RES ovarian. Further, the TGI with OVCAR-4 ovarian is more than 100 µM; in the assay on SF-268 CNS it was > 100 µM and 63800 µM; in the assay with SK-MEL-5 melanoma, > 100 µM and 66800 µM; in the assay on SNB-19 CNS, more than 100 µM.
